What all share (format): biochemical
The target of assay [1] is human neutrophil collagenase (Homo sapiens, UniProt P22894). As to the kind of experiment: Assay of human neutrophil collagenase inhibition activity. The following applies: human neutrophil collagenase 2 nM, H-150 buffer pH 7.4; read-out: Ki(app). The method, then: H-150 buffer, pH 7.4, was prepared by adding CaCl2 H2 O (1.47 grams), NaCl (8.77 grams) and N-[2-hydroxyethyl]piperazine-N'-[2-ethanesulfonic acid] (23.83 grams) to distilled and deionized water and then bringing the final volume of the solution to 1 liter.
A reaction mixture with a final volume of 2.0 mL was prepared from H-150 buffer, human neutrophil collagenase (Schnierer, et al., Blochem. Biophys. Res. Comm., 191:319 (1993); Knight et al., Federation of Europena Biochemical Societies 296:263 (1992)) (2 nM). Coumarin peptide substrate (4 μL of a 5 mM solution in dimethyl sulfoxide) was added to the reaction mixture. The rate of hydrolysis was determined for about 100-200 seconds by measuring the fluorescence of the reaction at ex328 nanometers and […] using a Hitachi F-2000 Fluorescence Spectrophotometer.
(§1) 2 μL of a 10 mM inhibitor stock solution (in dimethyl sulfoxide) is added and the reduction in the rate of hydrolysis is determined. Additional 2 μL aliquots of the stock inhibitor solution is added until a 30% to 70% inhibition is observed. Ki is calculated on the assumption of simple competitive inhibition and that the substrate concentration is much less than Km.

The target of another assay is stromelysin (Homo sapiens, UniProt P08254). As to the kind of experiment: Assay of stromelysin inhibition activity (fluorogenic coumarin peptide substrate). The following applies: trypsin-activated stromelysin 2 nM, H-150 buffer pH 7.4, room temperature; read-out: Ki(app). The protocol:
Stromelysin was first activated with trypsin. This was done by preparing a reaction mixture in H-150 (H-150 consists of 10 mM CaCl2, 150 mM NaCl and 100 mM HEPES at pH 7.4) containing a final concentration of 25 μg/mL trypsin and 2.2 μM of stromelysin (Marcy et al., Biochemistry,30:6476 (1991); Koklitis et al., Biochem. J., 376:217 (1991). The reaction was incubated for 30 minutes at 37° C. and then quenched by adding trypsin inhibitor agarose to the reaction mixture at a 20 fold excess with respect to trypsin.
The reaction mixture was centrifuged at 14,000 rpm (16,000 ×g) for 30 minutes using an Eppendorf Centrifuge 5415C. The supernant, which contains activated stromelysin, was concentrated with a Centricon 10 (5000 g, 1 hour). A sample was analyzed by Bradford total protein assay and 12% SDS polyacrylamide gel electrophoresis.
All steps of the stromelysin inhibition assay were performed at room temperature. Assay solutions were prepared for each inhibitor tested. Activated stromelysin was added to a stirred covelte to a final concentration of 2 nM in 2 mL of H-150 buffer. 4 μL 5 mM coumarin peptide substrate was dissolved in DMSO and the initial rate of hydrolysis was measured for 100-200 seconds.
Substrate hydrolysis was assessed by fluorescence using a slit width of 10:10, excitation at 328 nm and emission at 393 nm. Ki was calculated based on the assumption of simple competitive inhibition and a substrate concentration much less than Km. 2 μL of 10 mM inhibitor in DMSO was added and the reduction in hydrolysis rate measured. The addition of 2 μL of inhibitor was continued until a 30-70% inhibition was observed.

A further assay has as its target 92 kD gelatinase (Homo sapiens, UniProt P14780). As to the kind of experiment: Assay of 92 KD gelatinase inhibition activity. The following applies: 92KD gelatinase 25 pM, H-150 buffer pH 7.4; read-out: Ki(app). The method, then: H-150 buffer, pH 7.4, was prepared by CaCl2 H2 O (1.47 grams), NaCl (8.77 grams) and N-[2-hydroxyethyl]piperazine-N'-[2-ethanesulfonic acid](23.83 grams) to distilled and deionized water and then bring the final volume of the solution to 1 liter. A reaction mixture having a final volume of 500 μL was prepared with H-150 buffer, 200 μgrams of Pro-92KD gelatinase (Strongin et al., J. Biol. Chem., 268:14033 (1993); Goldberg, et al., J. Biol. Chem., 267:4583 (1992); Okada et al., J. Biol. Chem. 267:21712 (1992)), p-aminophenyl mercuric acetate (Sigma Chemical Co., St. Louis, Mo.) (1 mM) and Brij (dodexylpoly(oxyethyleneglycolether))(0,008% w/v). The reaction mixture wsa then incubated for 24 hours at 37° C.
The reaction mixture was applied to a NAP-5 column (G-25 SEPHADEX™, Pharmacia). Fractions containing 72KD gelatinase were identified using 12% polyacrylamide gel electrophoresis and concentrated to about 100-200 μliters by centrifigation (5000 g, 1 hour).
A solution containing H-150 buffer (2.0 mL), 92KD gelatinase (25 pM) and ethylphenolpoly(ethylene-glycolether)n (Boerhringer Mannheim) (4.0 μM) was prepared in a stirred cuvette. Coumarin peptide substrate (4 μL of a 5 mM solution in dimethyl sulfoxide) was added to the reaction mixture. The rate of hydrolysis was determined for about 100-200 seconds by measuring the fluorescence of the reaction at ex328 nanometers and […] using a Hitachi F-2000 Fluorescence Spectrophotometer.
as §1

The next assay deals with T1, 72 kD gelatinase (Homo sapiens, UniProt P08253).
T1 sequence (P08253 110-660): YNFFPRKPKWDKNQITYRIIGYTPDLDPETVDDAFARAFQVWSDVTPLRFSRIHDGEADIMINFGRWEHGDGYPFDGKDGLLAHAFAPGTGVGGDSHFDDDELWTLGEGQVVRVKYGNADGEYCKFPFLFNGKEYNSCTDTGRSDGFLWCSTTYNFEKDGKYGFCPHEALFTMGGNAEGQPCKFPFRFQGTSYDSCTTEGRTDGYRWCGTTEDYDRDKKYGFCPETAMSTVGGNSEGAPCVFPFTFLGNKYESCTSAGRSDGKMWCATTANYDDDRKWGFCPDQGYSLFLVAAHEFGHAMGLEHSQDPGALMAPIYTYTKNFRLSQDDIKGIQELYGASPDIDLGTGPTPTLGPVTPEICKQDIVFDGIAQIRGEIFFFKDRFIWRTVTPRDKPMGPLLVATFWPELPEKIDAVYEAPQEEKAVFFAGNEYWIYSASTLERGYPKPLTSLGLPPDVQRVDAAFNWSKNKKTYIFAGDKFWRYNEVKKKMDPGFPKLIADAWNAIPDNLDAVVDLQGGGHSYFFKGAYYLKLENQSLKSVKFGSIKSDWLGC
The experiment in a line: Assay of 72 KD gelatinase inhibition activity. The following applies: 72KD gelatinase 180 pM, H-150 buffer pH 7.4; read-out: Ki(app). The method, then:
H-150 buffer, pH 7.4, was prepared by CaCl2 H2O (1.47 grams), NaCl (8.77 grams) and N-[2 -hydroxyethyl]piperazine-N'-[2-ethanesulfonic acid](23.83 grams) to distilled and deionized water and then bring the final volume of the solution to 1 liter. An reaction mixture having a final volume of 250 μL was prepared with H-150 buffer, 40 μgrams of Pro-72KD gelatinase (Strongin, et al., J. Biol. Chem. 268:14033 (1993); Goldberg, et al., J. Biol. Chem., 267:4583 (1992); Kleiner, et al., Biochemistry 32:1583 (1993)) and p-aminophenyl mercuric acetate (Sigma Chemical Co., St. Louis, Mo.) (1 mM). The reaction mixture was then incubated for 3 hours at 25° C.
The reaction mixture was applied to a NAP-5 column (G-25 SEPHADEX™, Pharmacia). Fractions containing […] were identified using 12% SDS polyacrylamide gel electrphoresis and concentrated to about 100-200 μliters by centrifigation (5000 g, 15 minutes).
A solution containing H-150 buffer (2.0 mL), 72KD gelatinase (180 pM) and ethylphenolpoly(ethylene-glycolether)n (Boerhringer Mannheim) (1.3 μM) was prepared in a stirred cuvette. Coumarin peptide substrate (2 μL of a 1 mM solution in dimethyl sulfoxide) was added to the reaction mixture. The rate of hydrolysis was determined for about 100-200 seconds by measuring the fluorescence of the reaction at ex328 nanometers and […] using a Hitachi F-2000 Fluorescence Spectrophotometer.
as §1

Sequence of human neutrophil collagenase (P22894 101-467): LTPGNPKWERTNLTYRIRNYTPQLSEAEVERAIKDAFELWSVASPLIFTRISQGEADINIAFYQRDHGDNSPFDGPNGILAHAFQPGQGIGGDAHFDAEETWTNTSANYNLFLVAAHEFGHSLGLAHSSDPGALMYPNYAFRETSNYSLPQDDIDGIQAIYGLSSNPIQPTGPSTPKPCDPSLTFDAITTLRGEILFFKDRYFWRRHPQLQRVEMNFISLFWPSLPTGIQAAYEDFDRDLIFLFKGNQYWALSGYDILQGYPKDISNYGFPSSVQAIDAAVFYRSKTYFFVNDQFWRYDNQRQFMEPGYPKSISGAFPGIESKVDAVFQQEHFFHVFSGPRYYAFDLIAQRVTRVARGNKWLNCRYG
Sequence of 92 kD gelatinase (P14780 107-707): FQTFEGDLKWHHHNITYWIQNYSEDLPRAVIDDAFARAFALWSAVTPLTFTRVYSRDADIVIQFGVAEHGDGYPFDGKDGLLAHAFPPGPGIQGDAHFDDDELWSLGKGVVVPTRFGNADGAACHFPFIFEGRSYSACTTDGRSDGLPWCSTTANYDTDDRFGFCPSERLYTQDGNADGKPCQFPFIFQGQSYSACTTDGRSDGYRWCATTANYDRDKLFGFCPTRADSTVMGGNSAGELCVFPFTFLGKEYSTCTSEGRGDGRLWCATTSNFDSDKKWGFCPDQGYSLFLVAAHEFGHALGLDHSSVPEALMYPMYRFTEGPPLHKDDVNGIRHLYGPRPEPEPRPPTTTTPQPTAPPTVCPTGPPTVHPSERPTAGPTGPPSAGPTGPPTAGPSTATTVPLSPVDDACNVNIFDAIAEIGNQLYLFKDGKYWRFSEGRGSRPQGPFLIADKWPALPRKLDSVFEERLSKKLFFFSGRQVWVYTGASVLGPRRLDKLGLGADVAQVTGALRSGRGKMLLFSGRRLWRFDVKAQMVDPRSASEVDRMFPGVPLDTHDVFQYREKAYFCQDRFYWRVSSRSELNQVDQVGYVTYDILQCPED
Sequence of stromelysin (P08254 100-477): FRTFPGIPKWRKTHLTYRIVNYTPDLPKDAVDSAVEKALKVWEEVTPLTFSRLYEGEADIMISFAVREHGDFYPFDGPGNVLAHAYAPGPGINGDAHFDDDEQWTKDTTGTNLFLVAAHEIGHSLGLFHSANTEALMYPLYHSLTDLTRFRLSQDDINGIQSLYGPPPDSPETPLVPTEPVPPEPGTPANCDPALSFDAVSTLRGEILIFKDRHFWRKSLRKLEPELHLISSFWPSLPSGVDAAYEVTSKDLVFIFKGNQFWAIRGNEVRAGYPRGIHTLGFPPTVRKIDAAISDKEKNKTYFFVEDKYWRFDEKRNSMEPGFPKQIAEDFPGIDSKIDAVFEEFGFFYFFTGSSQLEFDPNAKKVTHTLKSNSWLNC

As for `CC(C)[C@H](NC(=O)[C@H](Cc1ccccc1)NC(=O)c1ccc(-c2ccccc2)cc1)C(=O)Nc1n[nH]c(=S)s1` [5-(N-(4-phenylbenzoyl)phenylalanyl-valylamino)-1,3,4-thiadiazole-2-thione], the Ki was 2.6 nM in assay [1], 82 nM at stromelysin, 0.31 nM at 92 kD gelatinase and 0.8 nM on 72 kD gelatinase.
For `CC(C)C[C@H](NC(=O)[C@H](Cc1ccccc1)NC(=O)OCc1ccccc1)C(=O)N[C@@H](Cc1c[nH]c2ccccc12)C(=O)Nc1n[nH]c(=S)s1` [5-(N-benzyloxycarbonyl-phenylalanyl-leucyl-tryptonylamino)-1,3,4-thiadiazole-2-thione], the Ki in assay [1] was 1.45 nM; on stromelysin, 246 nM.
Turning to `CSCC[C@H](NC(=O)[C@H](Cc1ccccc1)NC(=O)OCc1ccccc1)C(=O)Nc1n[nH]c(=S)s1` [5-(N-benzyloxycarbonyl-phenylalanyl-methionylamino)-1,3,4-thiadiazole-2-thione], the Ki in assay [1] worked out at 7.8 nM; at stromelysin, 1120 nM; at 92 kD gelatinase it was 3.6 nM; at 72 kD gelatinase, 1.7 nM.
The matching figures for `CC(C)C[C@H](NC(=O)[C@H](Cc1ccc(OCc2ccccc2)cc1)NC(=O)OCc1ccccc1)C(=O)Nc1n[nH]c(=S)s1` [5-(N-benzyloxycarbonyl-((O-benzyl)tyrosyl)-leucylamino)-1,3,4-thiadiazole-2-thione]: 1.83 nM, 96 nM, 0.29 nM and 0.24 nM.
The matching figures for `CC(C)C(NC(=O)C(Cc1ccc(NC(=O)OCc2ccccc2)cc1)NC(=O)OCc1ccccc1)C(=O)Nc1n[nH]c(=S)s1` (centres unmarked) [5-(N-benzyloxycarbonyl-((p-benzyloxycarbonylamino)phenyl-alanyl)-valylamino)-1,3,4-thiadiazole-2-thione]: 1.17 nM, 62 nM, 0.145 nM and 0.29 nM.
Regarding `O=C(CCC(NC(=O)OCc1ccccc1)C(=O)NC(C(=O)Nc1n[nH]c(=S)s1)c1ccccc1)NCCc1ccccc1` (centres unmarked) [5-(N-benzyloxycarbonyl-(γ-N-2-phenylethyl)glutamylphenylglycylamino)-1,3,4-thiadiazole-2-thione], the Ki in assay [1] stood at 0.54 nM; on stromelysin, 57 nM; at 92 kD gelatinase, 0.17 nM; at 72 kD gelatinase it was 0.52 nM.
With `CC(C)[C@H](NC(=O)[C@H](Cc1ccccc1)NC(=O)c1ccc(Oc2ccccc2)cc1)C(=O)Nc1n[nH]c(=S)s1` [5-(N-(4-phenoxy)benzoyl-phenylalanyl-valylamino)-1,3,4-thiadiazole-2-thione], the Ki in assay [1] is 1.67 nM; at stromelysin, 101 nM.
With `CC(C)[C@H](NC(=O)[C@H](Cc1c[nH]c2ccccc12)NC(=O)[C@H](Cc1ccccc1)NC(=O)OCc1ccccc1)C(=O)Nc1n[nH]c(=S)s1` [5-(N-benzyloxycarbonyl-phenylalanyl-tryptonyl-valylamino)-1,3,4-thiadiazole-2-thione], the Ki in assay [1] amounted to 2.4 nM; on stromelysin, 60 nM; at 92 kD gelatinase, 0.36 nM; on 72 kD gelatinase it was 0.71 nM.
The matching figures for `CC(C)[C@H](NC(=O)[C@H](CSCc1ccccc1)NC(=O)OCc1ccccc1)C(=O)Nc1n[nH]c(=S)s1` [5-(N-benzyloxycarbonyl-((S-benzyl)cysteinyl)-valylamino)-1,3,4-thiadiazole-2-thione]: 3.2 nM, 202 nM, 2.1 nM and 1.1 nM.
On to `CC(C)(C)OC(=O)N[C@@H](Cc1ccc(OCc2ccccc2)cc1)C(=O)NC(C(=O)Nc1n[nH]c(=S)s1)c1ccccc1` (some centres unmarked) [5-(N-t-Butoxycarbonyl-(O-benzyl)tyrosyl-phenylglycineamino)-1,3,4-thiadiazole-2-thione], for which the results for the Ki (in assay [1]; on 92 kD gelatinase; at 72 kD gelatinase) were 0.99 nM, 0.245 nM and 0.51 nM, respectively.
Take `CC(C)[C@H](NC(=O)[C@H](Cc1ccccc1)NC(=O)c1ccc(NS(=O)(=O)c2ccc(C(C)(C)C)cc2)cc1)C(=O)Nc1n[nH]c(=S)s1` [5-(N-(4-(4-t-Butylphenylsulfonylamino)benzoyl)-phenylalanyl-valylamino)-1,3,4-thiadiazole-2-thione]: the Ki was determined as 1.04 nM in assay [1], 44 nM on stromelysin, 0.31 nM at 92 kD gelatinase and 0.68 nM on 72 kD gelatinase.
As to `O=C(N[C@@H](Cc1ccccc1)C(=O)N[C@@H](CCc1ccccc1)C(=O)Nc1n[nH]c(=S)s1)OCc1ccccc1` [5-(N-benzyloxycarbonyl-phenylalanyl-homophenylalanylamino)-1,3,4-thiadiazole-2-thione], the Ki in assay [1] was found to be 2.9 nM; on 72 kD gelatinase it was 0.95 nM.

Values taken from patent publication US5677282A (Proscript, Inc., priority 1995, dated 1997).
